Experiments:
Assay in all cases: Hematological cell line viability/apoptosis flow cytometry assay
Assay type in all cases: cell-based
BL-41 cell line = conditions: BL-41 (BL), 120 h
Outline: (§1)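 Cells were treated with compound at 0.00015 to 10 μM (0.1% DMSO) for 120 hours, then stained with Annexin V and DRAQ7 for flow cytometry. Live (double-negative) counts were normalized to DMSO to fit IC50, Emax and AUC; total early plus late apoptosis gave EC50, Ymax and AUC.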

CARNAVAL cell line = conditions: CARNAVAL (DLBCL), 120 h
Outline: as §1

DOHH2 cell line = conditions: DOHH2 (FL); 120 h
Outline: as §1

GDM-1 cell line = conditions: GDM-1 (AML); 120 h
Outline: as §1

Rec-1 cell line = conditions: Rec-1 (MCL); 120 h
Outline: as §1

SK-MM-1 cell line = conditions: SK-MM-1 (MM, PCL), 120 h
Outline: as §1

STR428 cell line = conditions: STR428 (DLBCL), 120 h
Outline: as §1

SU-DHL-16 cell line = conditions: SU-DHL-16 (DLBCL GCB); 120 h
Outline: as §1

SU-DHL-4 cell line = conditions: SU-DHL-4 (DLBCL GCB); 120 h
Outline: as §1

SU-DHL-8 cell line = conditions: SU-DHL-8 (DLBCL GCB); 120 h
Outline: as §1

SVSL cell line = conditions: SVSL (MZL, SMZL), 120 h
Outline: as §1

U-2973 cell line = conditions: 120 h
Outline: as §1

VAL cell line = conditions: VAL (DLBCL), 120 h
Outline: as §1

O=C1CC[C@H](N2C(=O)c3cccc(NCc4ccc(CN5CC(N6CCOCC6)C5)cc4F)c3C2=O)C(=O)N1 [Compound 1, (S)-2-(2,6-dioxopiperidin-3-yl)-4-((2-fluoro-4-((3-morpholinoazetidin-1-yl)methyl)benzyl)amino)isoindoline-1,3-dione]
% Viable Cells AUC (BL-41 cell line): 270.2
% Viable Cells Emax (BL-41 cell line): 96.65%
Apoptosis AUC (BL-41 cell line): 288.2
Apoptosis Ymax (BL-41 cell line): 79.5%
EC50 (BL-41 cell line; Homo sapiens): 6.92 µM
IC50 (BL-41 cell line; Homo sapiens, read-out: % Viable Cells IC50): 6.07 µM
% Viable Cells AUC (CARNAVAL cell line): 110.6
% Viable Cells Emax (CARNAVAL cell line): 7.134%
Apoptosis AUC (CARNAVAL cell line): 708.7
Apoptosis Ymax (CARNAVAL cell line): 77.84%
EC50 (CARNAVAL cell line): 0.152 µM
IC50 (CARNAVAL cell line; read-out: % Viable Cells IC50): 0.00912 µM
% Viable Cells AUC (DOHH2 cell line): 6.902
% Viable Cells Emax (DOHH2 cell line): 0.2066%
Apoptosis AUC (DOHH2 cell line): 923.9
Apoptosis Ymax (DOHH2 cell line): 95.1%
% Viable Cells AUC (GDM-1 cell line): 1455
% Viable Cells Emax (GDM-1 cell line): 388.4%
Apoptosis AUC (GDM-1 cell line): 696.9
Apoptosis Ymax (GDM-1 cell line): 265%
% Viable Cells AUC (Rec-1 cell line): 281.8
% Viable Cells Emax (Rec-1 cell line): 21.04%
Apoptosis AUC (Rec-1 cell line): 508.5
Apoptosis Ymax (Rec-1 cell line): 57.27%
% Viable Cells AUC (SK-MM-1 cell line): 202.2
% Viable Cells Emax (SK-MM-1 cell line): 3%
Apoptosis AUC (SK-MM-1 cell line): 90.99
Apoptosis Ymax (SK-MM-1 cell line): 44.5%
EC50 (SK-MM-1 cell line): 86.4 µM
IC50 (SK-MM-1 cell line; read-out: % Viable Cells IC50): 0.0008 µM
% Viable Cells AUC (STR428 cell line): 43.48
% Viable Cells Emax (STR428 cell line): 1.227%
Apoptosis AUC (STR428 cell line): 905.9
Apoptosis Ymax (STR428 cell line): 95.17%
EC50 (STR428 cell line): 0.102 µM
IC50 (STR428 cell line; read-out: % Viable Cells IC50): 0.0947 µM
% Viable Cells AUC (SU-DHL-16 cell line): 149.7
% Viable Cells Emax (SU-DHL-16 cell line): 7.137%
Apoptosis AUC (SU-DHL-16 cell line): 492.6
Apoptosis Ymax (SU-DHL-16 cell line): 60.79%
% Viable Cells AUC (SU-DHL-4 cell line): 296.2
% Viable Cells Emax (SU-DHL-4 cell line): 23.44%
Apoptosis AUC (SU-DHL-4 cell line): 209
Apoptosis Ymax (SU-DHL-4 cell line): 25.33%
% Viable Cells AUC (SU-DHL-8 cell line): 119.5
% Viable Cells Emax (SU-DHL-8 cell line): 2.081%
Apoptosis AUC (SU-DHL-8 cell line): 363.2
Apoptosis Ymax (SU-DHL-8 cell line): 85.44%
% Viable Cells AUC (SVSL cell line): 368.4
% Viable Cells Emax (SVSL cell line): 34.07%
Apoptosis AUC (SVSL cell line): 340.2
Apoptosis Ymax (SVSL cell line): 35.5%
EC50 (SVSL cell line): 0.00284 µM
IC50 (SVSL cell line; read-out: % Viable Cells IC50): 0.0952 µM
% Viable Cells AUC (U-2973 cell line): 853.4
% Viable Cells Emax (U-2973 cell line): 19.45%
Apoptosis AUC (U-2973 cell line): 391.9
Apoptosis Ymax (U-2973 cell line): 60.8%
% Viable Cells AUC (VAL cell line): 14.62
% Viable Cells Emax (VAL cell line): 0.9632%
Apoptosis AUC (VAL cell line): 936.7
Apoptosis Ymax (VAL cell line): 95.68%
EC50 (VAL cell line): 0.000605 µM
IC50 (VAL cell line; read-out: % Viable Cells IC50): 0.00057 µM

Source: patent publication US11578056B2, “Solid forms comprising (S)-2-(2,6-dioxopiperidin-3-yl)-4-((2-fluoro-4-((3-morpholinoazetidin-1-yl)methyl)benzyl)amino)isoindoline-1,3-dione and salts thereof, and compositions comprising and methods of using the same” (Celgene Corporation, priority 2019, dated 2023)
